Data taken from article PMC12160547, “Identification of a Novel Small Molecule STING Agonist Reshaping the Immunomicroenvironment of Pancreatic Ductal Adenocarcinoma” (International Journal of Biological Sciences, 2025).

How the values were obtained:
[1] = Metabolite profiling in liver microsomes, 60 min incubation; type: in vitro ADME, mouse; settings: D166 incubated 60 min; selected ion chromatographic peak areas
Panc-1 cell line = assay: CCK8 and colony assay of Panc-1 cell line; type: cell-based, human; settings: Panc-1, 10μM D166, CCK8 and colony assay
Description: Western Blot showing cGAS-STING pathway protein expression of Panc-1 cell line
(B) CCK8 of Panc-1 cell line when
(C-D) Representative image (C) and statistic (D) of […]

[2] = Metabolite profiling in liver microsomes, 60 min incubation; type: in vitro ADME, dog; settings: D166 incubated 60 min; selected ion chromatographic peak areas
[3] = Pharmacokinetic parameters, i.v. and p.o.; type: in vivo; settings: plasma
[4] = system: orthotopic PDAC microenvironment; assay: Flow cytometry and scRNA-seq of orthotopic PDAC microenvironment; type: in vivo, mice
Method: Bulk RNA sequencing was performed by GenePlus (China) on pancreatic cancer organoids treated with 10 μM of […] or MSA-2, compared to a control group, with three biological replicates. The sequencing data are available for access and analysis via the provided website. Single-cell RNA sequencing (scRNA-seq) was conducted by NovelBio (China) on in situ mouse pancreatic tumors following tissue digestion. The resulting sequencing data were analyzed using R software. Mouse tumors were digested using the Mouse Tumor Dissociation Kit (Miltenyi Biotec) according to the manufacturer's protocol. The resulting single-cell suspension was filtered through a 70-micron mesh to ensure a homogeneous cell population. Cells were stained with fluorescently labeled antibodies for flow cytometry at 4°C on ice for 30 minutes. After washing off unbound antibodies, fluorescence was detected using a Beckman CytoFlex S flow cytometer. For co-cultured immune cells, separated T cells and macrophages were similarly stained with flow cytometry antibodies. For cytokine staining, cells were pre-stimulated with the eBioscienceTM Cell Stimulation Cocktail for 4 hours. For intracellular protein staining, after surface staining, cells were fixed and permeabilized using the BD Cytofix/CytopermTM Fixation/Permeabilization Kit, followed by staining for intracellular proteins. Flow cytometry data were analyzed using FlowJo 10 software.

cGAS-STING pathway = assay: cGAS-STING pathway, IFN-β and ISG readout in pancreatic cancer organoids; type: cell-based, human
Method: Tumor tissues or cells were thoroughly lysed in RIPA buffer containing protease and phosphatase inhibitors. The lysates were then centrifuged to collect the supernatant. Proteins were separated by electrophoresis in MOPS buffer and subsequently transferred onto a PVDF membrane. After blocking, the membrane was sequentially incubated with the primary antibody, secondary antibody, and chemiluminescent substrate (ECL) for imaging.
RNA from tumor tissues or cells was extracted using the SteadyPure Universal RNA Extraction Kit (Accurate Biology) and reverse transcribed into cDNA with the Evo M-MLV Reverse Transcription Kit (Accurate Biology). Relative RNA expression levels were quantified using 2X Universal SYBR Green Fast qPCR Mix (Abclonal), and the results were recorded on the qTOWER®3 84 Real-Time PCR system.
Multiplex cytokine detection was performed using Luminex cytokine bead array technology provided by WayenBio, Shanghai. In the mouse tumor model, levels of multiple cytokines were simultaneously measured and normalized to tumor weight. For the quantification of specific cytokines, such as IL-6 and IFN-β, enzyme-linked immunosorbent assay (ELISA) kits from Abclonal were used. The assays were conducted according to the manufacturer's instructions.

[5] = system: pancreatic tumor organoids co-cultured with T cells or macrophages; assay: Co-culture of pancreatic tumor organoids and immune cells; type: cell-based, human
Method: T cells and monocytes were isolated from the peripheral blood of patients using the EasySep™ Human CD8+ T Cell Isolation Kit and Human Monocyte Isolation Kit ([…]). CD8+ T cells were activated with anti-CD3 (5 μg/mL) and anti-CD28 (5 μg/mL) antibodies (BioLegend), while monocytes were stimulated with 50 ng/mL of M-CSF (BioLegend) for 6 days to induce differentiation into macrophages. […] On day 5, immune cells were harvested for flow cytometry analysis. Tumor organoids were photographed, viability was assessed, and organoids were embedded for HE and IHC staining at days 0, 5, and 10 of co-culture.
Mouse tumors were digested using the Mouse Tumor Dissociation Kit (Miltenyi Biotec) according to the manufacturer's protocol. The resulting single-cell suspension was filtered through a 70-micron mesh to ensure a homogeneous cell population. Cells were stained with fluorescently labeled antibodies for flow cytometry at 4°C on ice for 30 minutes. After washing off unbound antibodies, fluorescence was detected using a Beckman CytoFlex S flow cytometer. For co-cultured immune cells, separated T cells and macrophages were similarly stained with flow cytometry antibodies. For cytokine staining, cells were pre-stimulated with the eBioscience™ Cell Stimulation Cocktail for 4 hours. For intracellular protein staining, after surface staining, cells were fixed and permeabilized using the BD Cytofix/Cytoperm™ Fixation/Permeabilization Kit, followed by staining for intracellular proteins. Flow cytometry data were analyzed using FlowJo 10 software.

mouse STING (R231) = molecular target: T1, mouse STING (R231) (Mus musculus, UniProt Q3TBT3); assay: Differential scanning fluorimetry (DSF); type: binding; settings: n = 3
T1 sequence (Q3TBT3 1-378): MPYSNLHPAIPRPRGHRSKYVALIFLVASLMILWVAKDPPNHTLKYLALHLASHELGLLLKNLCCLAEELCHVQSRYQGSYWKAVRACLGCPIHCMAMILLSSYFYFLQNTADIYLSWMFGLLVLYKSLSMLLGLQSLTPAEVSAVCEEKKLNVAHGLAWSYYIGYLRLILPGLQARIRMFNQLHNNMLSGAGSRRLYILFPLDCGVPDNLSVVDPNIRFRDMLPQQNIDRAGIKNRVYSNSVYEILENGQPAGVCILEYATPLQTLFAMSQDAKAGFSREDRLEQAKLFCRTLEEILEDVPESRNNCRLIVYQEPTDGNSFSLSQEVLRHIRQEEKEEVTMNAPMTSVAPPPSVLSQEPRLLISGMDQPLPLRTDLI
Description: (§1) human STING variants (R232) and mouse STING (R231) in differential scanning
(§2) fluorimetry (DSF) assay. The data were shown as the mean value of fluorescence (n =
(§3) (1 picture or pasted object on this page, not shown here)

[6] = system: human STING variants (R232); assay: Differential scanning fluorimetry (DSF); type: binding; settings: n = 3
Description: as §1, §2, §3

[7] = Metabolite profiling in liver microsomes, 60 min incubation; type: in vitro ADME, human; settings: D166 incubated 60 min; selected ion chromatographic peak areas
[8] = flow cytometry of tumor suspensions

## [2H]C([2H])([2H])Oc1cc2cc(C(=O)CCC(=O)O)sc2cc1OC([2H])([2H])[2H] [D166]
[1]
  Relative Peak Area Abundance (%) MLM: 94.2%
Panc-1 cell line
  proliferation: without affecting proliferation
[2]
  Relative Peak Area Abundance (%) DLM: 98.6%
[3]; iv, average of three runs
  AUC(0-inf): 750 ng·h/mL
  MRT inf: 15.6 min
  clearance: 22.5 mL/min/kg
  half-life: 45 min
[3]; iv, average of three runs, read-out: Vz
  Vd: 1.45 L/kg
[3]; po, average of three runs
  AUC(0-inf): 2120 ng·h/mL
  MRT inf: 66 min
  half-life: 81 min
[3]; p.o., oral bioavailability
  bioavailability: 93.8%
[4]; 10 mg/kg D166, 10X single-cell sequencing
  proportion of ductal cells (including cancer cells) and fibroblasts: significant reduction
[4]; [8]
  F4/80-positive macrophages among the myeloid cells: significant increase
  proportion of CD4+ and CD8+ T cells: significantly increased
cGAS-STING pathway; organoids, 10μM
  activating IFN-stimulated genes (ISGs) compared with ADU-S100, MSA-2, SR-717, MK-1454 and DXMAA: better efficacy
cGAS-STING pathway; pancreatic cancer organoids, different concentration and duration
  activation of the cGAS-STING pathway and induction of IFN-β: time- and dose-dependent effect
[5]; CTG assay, days 0, 5, 10 of co-culture
  size and viability of pancreatic cancer organoids: significant reduction
[5]; culture medium, ELISA
  IL-6, IFN-β, IFN-γ, and TNF-α levels: significantly increased
[5]; flow cytometry
  IFNG and GZMB release from T cells: marked increase
  mean fluorescence intensities (MFI) of CD86 and CD80 (M1 markers) in macrophages: significantly increased
  mean fluorescence intensities (MFI) of CD163 and CD206 (M2 markers) in macrophages: significantly decreased
Mouse STING (R231)
  thermal stability of mouse STING (R231): increased
[6]
  thermal stability of human STING variants (R232): increased
[7]
  Relative Peak Area Abundance (%) HLM: 98.5%
